The values below come from patent publication US10017520B2, “Myc modulators and uses thereof” (Massachusetts Institute of Technology, priority 2014, dated 2018).

Some results are limits rather than exact numbers.

The first experiment relates to c-Myc. The experiment is described as follows: c-Myc reporter gene assay (Qiagen) in HEK293T cells. The experiment is classed as cell-based. The following applies: Homo sapiens, HEK-293T, 16 h, treatment 16 hours, Firefly/Renilla ratio. On the procedure:
Compound 1's activity against Myc was measured as a Firefly/Renilla ratio, using the Myc reporter assay (Qiagen) in HEK293T cells after treatment with compound 1 for 16 hours. Results are expressed as a mean+/−SD (n=3). SD: standard deviation.
Select compounds described herein that were SMM assay positives were evaluated in several versions of a c-Myc reporter gene assay, including a commercial assay from Qiagen. The compounds' activities against c-Myc were measured as a Firefly/Renilla ratio, using the Myc reporter assay (Qiagen) in HEK293T cells after treatment with the compounds for 16 hours.
Background: In a reporter assay the amount or activity of a reporter protein is the signal.
Consider `CC(C)N1C(=O)S/C(=C\c2ccc(Sc3ncc[nH]3)o2)C1=O` [Compound 16, (Z)-5-((5-((1H-imidazol-2-yl)thio)furan-2-yl)methylene)-3-isopropylthiazolidine-2,4-dione], for which the IC50 (as a rule, the concentration that gives 50% inhibition) worked out at 20.8 µM. Still for that read-out and setting: next, `O=C(NCCCN1C(=O)S/C(=C\c2ccc(Sc3nc4ccccc4[nH]3)o2)C1=O)Nc1ccccc1` [Compound 20, (Z)-1-(3-(5-((5-((1H-benzo[d]imidazol-2-yl)thio)furan-2-yl)methylene)-2,4-dioxothiazolidin-3-yl)propyl)-3-phenylurea]: 1.22 µM; `CCC(C)N1C(=O)S/C(=C\c2ccc(Sc3nc4ccccc4[nH]3)o2)C1=O` (stereo not shown) [Compound 31]: 2.22 µM.

Take `c1ccc(NCc2ccc(Sc3nc4ccccc4[nH]3)o2)cc1` [Compound 45, N-((5-((1H-benzo[d]imidazol-2-yl)thio)furan-2-yl)methyl)aniline]: the IC50 amounted to 4.66 µM. Consider `CC(C)N1C(=O)S/C(=C\c2cccc(Oc3nc4ccccc4[nH]3)c2)C1=O` [Compound 65, (Z)-5-(3-((1H-benzo[d]imidazol-2-yl)oxy)benzylidene)-3-isopropylthiazolidine-2,4-dione], for which the IC50 was determined as 0.99 µM. The same measure, in the same setting: the figure for `CC(C)NC(=O)c1ccc(Sc2nc3ccccc3[nH]2)o1` [Compound 43, 5-((1H-benzo[d]imidazol-2-yl)thio)-N-isopropylfuran-2-carboxamide] is 7.9 µM. Regarding `CC(=O)c1ccc2nc(Sc3ccc(/C=C4\SC(=O)N(C(C)C)C4=O)o3)[nH]c2c1` [Compound 58, (Z)-5-((5-((6-acetyl-H-benzo[d]imidazol-2-yl)thio)furan-2-yl)methylene)-3-isopropylthiazolidine-2,4-dione], the IC50 was found to be 0.26 µM.

As to `CC(/C=C1\SC(=O)N(C(C)C)C1=O)=C\c1ccccc1` [Compound 37], the IC50 is more than 100 µM.

`CCNC(=O)NCCCN1C(=O)S/C(=C\c2ccc(Sc3nc4ccccc4[nH]3)o2)C1=O` [Compound 21]: the IC50 was 6.77 µM. The same measure, in the same setting: next, `CC(C)(C)OC(=O)CN1C(=O)S/C(=C\c2ccc(Sc3nc4ccccc4[nH]3)o2)C1=O` [Compound 14, (Z)-tert-butyl 2-(5-((5-((1H-benzo[d]imidazol-2-yl)thio)furan-2-yl)methylene)-2,4-dioxothiazolidin-3-yl)acetate]: 1.96 µM; `CC(C)N1C(=O)S/C(=C\c2ccc(Sc3nc4ccc(NC(=O)c5ccccc5)cc4[nH]3)o2)C1=O` [Compound 61, (Z)—N-(2-((5-((3-isopropyl-2,4-dioxothiazolidin-5-ylidene)methyl)furan-2-yl)thio)-1H-benzo[d]imidazol-6-yl)benzamide]: 0.4 µM.

With `CN(C)Cc1ccc(Sc2nc3ccccc3[nH]2)o1` [Compound 49, 1-(5-((1H-benzo[d]imidazol-2-yl)thio)furan-2-yl)-N,N-dimethylmethanamine], the IC50 was determined as 59.4 µM. Consider `COC(=O)CNCc1ccc(Sc2nc3ccccc3[nH]2)o1` [Compound 50, Methyl 2-(((5-((1H-benzo[d]imidazol-2-yl)thio)furan-2-yl)methyl)amino)acetate], for which the IC50 amounted to 75.9 µM. As for `CC(=O)Nc1ccc2nc(Sc3ccc(/C=C4\SC(=O)N(C(C)C)C4=O)o3)[nH]c2c1` [Compound 62, (Z)—N-(2-((5-((3-isopropyl-2,4-dioxothiazolidin-5-ylidene)methyl)furan-2-yl)thio)-1H-benzo[d]imidazol-6-yl)acetamide], the IC50 was 0.93 µM. On the same count and under the same terms, next, `CC(C)N1C(=O)S/C(=C\c2ccc(Sc3ccccn3)o2)C1=O` [Compound 17, (Z)-3-isopropyl-5-((5-(pyridin-2-ylthio)furan-2-yl)methylene)thiazolidine-2,4-dione]: 7.67 µM.

With `O=C1CSC(=O)N1Cc1ccc(Sc2nc3ccccc3[nH]2)o1` [Compound 67, 3-((5-((1H-benzo[d]imidazol-2-yl)thio)furan-2-yl)methyl)thiazolidine-2,4-dione], the half-maximal inhibitory concentration (IC50) stood at 30 µM.

Consider `c1ccc2[nH]c(Sc3ccc(CN4CCOCC4)o3)nc2c1` [Compound 47, 4-((5-((1H-benzo[d]imidazol-2-yl)thio)furan-2-yl)methyl)morpholine], for which the half-inhibitory concentration (IC50) was determined as 32.9 µM. Still for that read-out and setting: the figure for `CCN1CCN(Cc2ccc(Sc3nc4ccccc4[nH]3)o2)CC1` [Compound 48, 2-((5-((4-ethylpiperazin-1-yl)methyl)furan-2-yl)thio)-1H-benzo[d]imidazole] is 10.2 µM; for `CC(C)NCc1ccc(Sc2nc3ccccc3[nH]2)o1` [Compound 46] it is 57.5 µM.

In the case of `NCCCN1C(=O)S/C(=C\c2ccc(Sc3nc4ccccc4[nH]3)o2)C1=O` [Compound 19, (Z)-5-((5-((1H-benzo[d]imidazol-2-yl)thio)furan-2-yl)methylene)-3-(3-aminopropyl)thiazolidine-2,4-dione 2,2,2-trifluoroacetate], the half-inhibitory concentration (IC50) was 7.3 µM. Regarding `O=C1S/C(=C\c2ccc(Sc3nc4ccccc4[nH]3)o2)C(=O)N1c1ccccc1` [Compound 35], the IC50 turned out to be 11.9 µM.

For `CC(C)N1C(=O)S/C(=C\c2ccc(Sc3nc4ccc(N)cc4[nH]3)o2)C1=O` [Compound 60, (Z)-5-((5-((6-amino-1H-benzo[d]imidazol-2-yl)thio)furan-2-yl)methylene)-3-isopropylthiazolidine-2,4-dione], the IC50 turned out to be 4.56 µM. Same read-out and setting: next, `CC(C)N1C(=O)S/C(=C\c2ccc(Sc3nc4ccccc4n3C)o2)C1=O` [Compound 18, (Z)-3-isopropyl-5-((5-((1-methyl-1H-benzo[d]imidazol-2-yl)thio)furan-2-yl)methylene)thiazolidine-2,4-dione]: 1.67 µM; `CC(C)N1C(=O)S/C(=C\c2ccc(Sc3nc4ccc(OC(F)(F)F)cc4[nH]3)o2)C1=O` [Compound 56, (Z)-3-isopropyl-5-((5-((6-(trifluoromethoxy)-1H-benzo[d]imidazol-2-yl)thio)furan-2-yl)methylene)thiazolidine-2,4-dione]: 0.44 µM.

As for `COC(=O)CN1C(=O)S/C(=C\c2ccc(Sc3nc4ccccc4[nH]3)o2)C1=O` [Compound 15, (Z)-methyl 2-(5-((5-((1H-benzo[d]imidazol-2-yl)thio)furan-2-yl)methylene)-2,4-dioxothiazolidin-3-yl)acetate], the IC50 turned out to be 3.26 µM. Consider `COC(=O)C(C)N1C(=O)S/C(=C\C=C\c2ccco2)C1=O` (stereo not shown) [Compound 38], for which the IC50 is more than 100 µM.

Staying with this experiment, now noted: Homo sapiens, HEK-293T, treatment 16 hours, Firefly/Renilla ratio.
Regarding `CC(C)N1C(=O)S/C(=C\c2ccc(Sc3nc4ccccc4[nH]3)s2)C1=O` [Compound 11, (Z)-5-((5-((1H-benzo[d]imidazol-2-yl)thio)thiophen-2-yl)methylene)-3-isopropylthiazolidine-2,4-dione], the IC50 was 1.62 µM.

Still in this experiment, the particulars now being: treatment 16 hours, Firefly/Renilla ratio.
Take `O=C(O)c1ccc(Sc2nc3ccccc3[nH]2)o1` [Compound 41, 5-((1H-benzo[d]imidazol-2-yl)thio)furan-2-carboxylic acid]: the “c-Myc reporter assay IC50” value is given as “non active”. With `O=C(c1ccc(Sc2nc3ccccc3[nH]2)o1)N1CCOCC1` [Compound 44, (5-((1H-benzo[d]imidazol-2-yl)thio)furan-2-yl)(morpholino)methanone], the “c-Myc reporter assay IC50” value is listed as “non active”. On the same count and under the same terms, the entry for `O=C1NC(=O)C(=Cc2ccc(Sc3nc4ccccc4[nH]3)o2)C(=O)N1` [Compound 54, 5-((5-((1H-benzo[d]imidazol-2-yl)thio)furan-2-yl)methylene)pyrimidine-2,4,6(1H,3H,5H)-trione] is “non active”. As to `NCCCN1C(=O)S/C(=C\c2ccc(Sc3nc4ccccc4[nH]3)o2)C1=O` [Compound 19, (Z)-5-((5-((1H-benzo[d]imidazol-2-yl)thio)furan-2-yl)methylene)-3-(3-aminopropyl)thiazolidine-2,4-dione 2,2,2-trifluoroacetate], the IC50 came out at 6.52 µM.
